Reference: article PMC11050599, “Novel Tetracyclic Azaphenothiazines with the Quinoline Ring as New Anticancer and Antibacterial Derivatives of Chlorpromazine” (International Journal of Molecular Sciences, 2024)
In brackets after ≈: the same amount, converted by molar mass. Like-named read-outs stand apart in the source and are kept apart here. Blank lines part the entries; values can stand above or below the compound they belong to.

Assays:
[1] = system: MiaPaCa-2 (pancreas cancer); test: MTT assay, MiaPaCa-2 cells; type: cell-based, human; conditions: for IC50: Homo sapiens, read-out: IC50 MiaPaCa-2
Description: (§1) The human cell lines, such as A549 (lung cancer), MDA-MB-231 (breast cancer), MiaPaca-2 (pancreatic cancer), PC3 (metastatic prostate cancer), HCT-116 (colon carcinoma), and HaCaT (immortalized keratinocytes), were sourced from the American Type Culture Collection (ATCC) in Rockville, USA. Culturing conditions varied as follows: HCT116 cells were cultured in MEM (ThermoSci, Waltham, MA, USA), A549, MDA-MB-231, MiaPaca, HaCaT cells in DMEM High Glucose and PC3 cells were cultured in RPMI (Biowest SAS, Nuaillé, France). The growth medium consisted of 10% fetal bovine serum (FBS, Sigma-Aldrich, St. Louis, MO, USA), 20 mM HEPES (Biowest, Nuaillé, France), and antibiotics (100 U/mL of penicillin and 100 μg/mL of streptomycin) from Gibco, Grand Island, NY, USA. […] These compounds were added to 96-well plates containing study cells (1 × 10^4 cells per well) and incubated for 72 h. […] Cell absorbance results were incorporated into the formula for calculating the relative MTT level (%), enabling the assessment of cell viability following exposure to the test compounds. The cell viability percentage represents the MTT reduction in cells treated with the test compounds compared to the control sample, where only the medium was added to the cells.

[2] = system: S. epidermidis ATCC 35984; test: MIC broth microdilution; type: cell-based
Source text: (§2) To evaluate the antibacterial effectiveness of chloroquinobenzothiazine derivatives, various bacterial strains from international microbe collections such as the American Type Culture Collection (ATCC) and the National Collection of Type Culture (NCTC) were examined, alongside a panel of clinical rods. This included two Gram-negative organisms, E. coli ATCC 25922 and P. aeruginosa ATCC 15442, and a series of six Gram-positive strains: S. aureus NCTC 4163; S. aureus ATCC 29213, 25923, and 6538; and S. epidermidis ATCC 12228 and 35984. […] The MIC was determined using the two-fold serial broth microdilution method in 96-well microtitration plates containing Mueller-Hinton II broth medium (Becton Dickinson, Franklin Lakes, NJ, USA). The final inoculum for all tested bacteria was adjusted to […] (colony-forming units per milliliter). The stock solution of the tested compounds was prepared in dimethyl sulfoxide (DMSO) and diluted to a maximum of 1% solvent content with a sterile medium.

S. aureus ATCC 29213 = test: MIC broth microdilution; type: cell-based; conditions: Staphylococcus aureus, ATCC29213, 19 h, read-out: MIC S. aureus ATCC 29213
Source text: as §2

P. aeruginosa ATCC 15442 = test: MIC broth microdilution; type: cell-based; conditions: Pseudomonas aeruginosa, ATCC15442, 19 h, read-out: MIC P. aeruginosa ATCC 15442
Source text: as §2

E. coli ATCC 25922 = test: MIC broth microdilution; type: cell-based; conditions: Escherichia coli, ATCC25922, 19 h, read-out: MIC E. coli ATCC 25922
Source text: as §2

S. aureus ATCC 6538 = test: MIC broth microdilution; type: cell-based; conditions: Staphylococcus aureus, ATCC6538, 19 h, read-out: MIC S. aureus ATCC 6538
Source text: as §2

S. aureus NCTC 4163 = test: MIC broth microdilution; type: cell-based; conditions: Staphylococcus aureus, NCTC4163, 19 h, read-out: MIC S. aureus NCTC 4163
Source text: as §2

[3] = system: S. epidermidis ATCC 12228; test: MIC broth microdilution; type: cell-based; conditions: Staphylococcus epidermidis, ATCC12228, 19 h, read-out: MIC S. epidermidis ATCC 12228
Source text: as §2

S. aureus ATCC 25923 = test: MIC broth microdilution; type: cell-based; conditions: Staphylococcus aureus, ATCC25923, 19 h, read-out: MIC S. aureus ATCC 25923
Source text: as §2

HCT116 cells [4] = test: Annexin V-FITC/PI apoptosis flow cytometry, HCT116; type: cell-based, human; conditions: representative dot plot, Figure 4C, IC50, 72 h
Description: (§3) To analyze the number of cells in early apoptosis, late apoptosis, or necrosis, A549, MiaPaca-2, and HCT-116 cell lines were cultured in 6-well plates with a seeding density of 1 × 10^5 cells per well. These cells were then treated with selected compounds (4, 5, and 8) at their respective IC50 concentrations and incubated for 72 h. Subsequently, a commercially available kit, the FITC: Annexin V Apoptosis Detection Kit I from BD Biosciences Pharmingen in San Jose, CA, USA, was utilized to assess apoptosis. After 72 h the cells were harvested, washed, and labeled with Annexin V-FITC and propidium iodide (PI) following the manufacturer’s protocol (Becton Dickinson), as previously described. The stained cells were analyzed by flow cytometry. The cells were identified as early apoptotic (Annexin V+/PI−) or late apoptotic/necrotic (Annexin V+/PI+).

HCT116 (colon cancer) = test: MTT assay, HCT116 cells; type: cell-based, human; conditions: for IC50: Homo sapiens, read-out: IC50 HCT116; for SI HCT116: SI = IC50 for normal cell line (HaCaT)/IC50 cancer cell line
Description: as §1

PC3 (prostate cancer) = test: MTT assay, PC3 cells; type: cell-based, human; conditions: for IC50: Homo sapiens, read-out: IC50 PC3; for SI PC3: SI = IC50 for normal cell line (HaCaT)/IC50 cancer cell line
Description: as §1

HCT116 cells [5] = test: Cell cycle analysis by flow cytometry, HCT116; type: cell-based, human; conditions: IC50, 24 h, compared to the control
Description: In brief, cells were seeded at a density of 1 × 10^5 cells/well on a six-well plate and allowed to adhere for 24 h. […] Both population cells (the attached and detached) were collected and centrifuged at 400× g for 5 min at 4 °C. After centrifugation, the cells were washed twice with 0.9% NaCl and subsequently fixed in 500 μL of 70 % cold ethanol overnight.
Before analysis, the fixed cells underwent another centrifugation step at 850× g for 5 min at 4 °C and were washed with PBS. Following the washes, the cells were incubated with 50 μL of RNase (100 μg/mL) and 200 μL of propidium iodide (PI) (50 μg/mL) at 37 °C for 30 min in the dark. Finally, 100 μL of PBS was added to each sample. Flow cytometry (Becton Dickinson FACS Verse, Franklin Lakes, NJ, USA) was then used to analyze the cell cycle distribution, identifying cells in various stages including sub-G1, G0/G1, S, and G2/M phases. Each assay was performed in quadruplicate.

[6] = system: MDA-MB-231 (breast cancer); test: MTT assay, MDA-MB-231 cells; type: cell-based, human; conditions: for IC50: Homo sapiens, read-out: IC50 MDA; for SI MDA: SI = IC50 for normal cell line (HaCaT)/IC50 cancer cell line
Description: as §1

A549 (lung cancer) = test: MTT assay, A549 cells; type: cell-based, human; conditions: Homo sapiens, read-out: IC50 A549
Description: as §1

A549 cells = test: Annexin V-FITC/PI apoptosis flow cytometry, A549; type: cell-based, human; conditions: representative dot plot, Figure 4A, IC50, 72 h
Description: as §3

[7] = system: HaCaT (immortalized human keratinocytes); test: MTT assay, HaCaT normal cells; type: cell-based; conditions: Homo sapiens, HaCaT, 72 h, read-out: IC50 HaCaT (Table 3)
Description: as §1

cancer cell lines = test: MTT assay, summary over several cell lines; type: cell-based, human; conditions: A549 and MDA-MB-231 versus HaCaT
Description: as §1

SMILES: O=C(NCCCl)NCCCN1c2cc(Cl)ccc2Sc2cc3ccccc3nc21 [Compound 20, 1-(3-(8-Chloroquino[3,2-b]benzo[1,4]thiazin-6-yl)propyl)-3-(2-chloroethyl)urea]
IC50 ([1]; MIA PaCa-2, 72 h): 23200 ± 2700 nM
SI MiaPaCa-2 ([1]; SI = IC50 for normal cell line (HaCaT)/IC50 cancer cell line): 4.3
MIC S. epidermidis ATCC 35984 ([2]; 19 h, 35 °C): 4 µg/mL (≈ 8.94 µM)
MIC ([2]; Staphylococcus epidermidis, ATCC35984, 19 h, read-out: MIC S. epidermidis ATCC 35984): 4 µg/mL (≈ 8.94 µM)
MIC (S. aureus ATCC 29213): 8 µg/mL (≈ 17.9 µM)
MIC (P. aeruginosa ATCC 15442): > 256 µg/mL
MIC (E. coli ATCC 25922): > 256 µg/mL
MIC (S. aureus ATCC 6538): 8 µg/mL (≈ 17.9 µM)
MIC (S. aureus NCTC 4163): 8 µg/mL (≈ 17.9 µM)
MIC [3]: 8 µg/mL (≈ 17.9 µM)
MIC (S. aureus ATCC 25923): 8 µg/mL (≈ 17.9 µM)
HCT-116: Alive (HCT116 cells [4]): 83.79%
HCT-116: Early Apoptotic (HCT116 cells [4]): 7.24%
HCT-116: Necrotic (HCT116 cells [4]): 4.80%
HCT-116: Necrotic/Late Apoptotic (HCT116 cells [4]): 4.17%
IC50 (HCT116 (colon cancer); HCT-116, 72 h): 10400 ± 1600 nM
SI HCT116 (HCT116 (colon cancer)): 8.8
IC50 (PC3 (prostate cancer); PC-3, 72 h): 34800 ± 9800 nM
SI PC3 (PC3 (prostate cancer)): 2.8
increase in the cell amount at the sub-G1 phase, HCT116 (HCT116 cells [5]): 3 fold
IC50 ([6]; MDA-MB-231, 72 h): 48600 ± 7300 nM
SI MDA [6]: 2.0
IC50 (A549 (lung cancer); A549, 72 h): 9300 ± 1200 nM
A549: Alive (A549 cells): 88.24%
A549: Early Apoptotic (A549 cells): 0.13%
A549: Necrotic (A549 cells): 10.74%
A549: Necrotic/Late Apoptotic (A549 cells): 0.89%
IC50 [7]: > 100000 nM

IC50 ([1]; MIA PaCa-2, MTT, 72 h): 600 ± 200 nM
IC50 (HCT116 (colon cancer); HCT-116, MTT, 72 h): 590 ± 20 nM
IC50 (PC3 (prostate cancer); PC-3, MTT, 72 h): 800 ± 100 nM
IC50 ([6]; MDA-MB-231, MTT, 72 h, MDA-MB231): 800 ± 100 nM
IC50 (A549 (lung cancer); A549, MTT, 72 h, mean SD): 600 ± 200 nM
SMILES: COc1cccc2c1C(=O)c1c(O)c3c(c(O)c1C2=O)C[C@@](O)(C(=O)CO)C[C@@H]3O[C@H]1C[C@H](N)[C@H](O)[C@H](C)O1 [DX, doxorubicin, reference compound]
SI HCT116 (HCT116 (colon cancer)): 0.5
SI PC3 (PC3 (prostate cancer)): 0.15
SI MDA [6]: 0.15
IC50 ([7]; MTT, normal cells): 300 ± 100 nM
selectivity index (SI) range (cancer cell lines): 0.14–0.15
